Here are results for one molecule from patent US20240139125A1 (INDUSTRIAL COOPERATION FOUNDATION JEONBUK NATIONAL …, priority 2020, published 2024).

SMILES strings stand for the structures. “Also recorded” adds a separate entry of the source.

One test deals with HT1080. The test can be described thus: Cell proliferation/viability with BIA, IC50 after 3 days. The conditions noted are these: Homo sapiens, HT-1080, 72 h; HT1080, treatment for 3 days. Type of test: cell-based.
A further test deals with MCF7. The test is described as above. It is filed as cell-based. The conditions noted are these: Homo sapiens, MCF7, 72 h; MCF cells, treatment for 3 days.
In another test the test system is MDA-MB-231. The test is described as above. Type of test: cell-based. As to conditions: Homo sapiens, 72 h; MDA-MB-231 cells, treatment for 3 days.
Another test deals with SKBR3. The test is described as above. It is filed as cell-based. The conditions noted are these: Homo sapiens, SK-BR-3, 72 h; SKBR3 cells, treatment for 3 days.
The subject of test [1] is BI-1 (TMBIM6) knockout HT1080 cells. Kind of test: Cell proliferation of knockout cells with BIA (off-target check). Type of test: cell-based. Here is the method: BI-1 (TMBIM6) WT HT1080 cells, BI-1 (TMBIM6) knockout HT1080 , human breast cancer cell lines MCF7, MDA-MB-231 and SKBR3 were treated with BIA 0.5, 1.0, 2.0, 5.0, 10.0 μM and cell proliferation was confirmed. Cells with proliferation of all cell lines by 5 μM BIA treatment It was confirmed that viability was inhibited (see FIG. 57).
Cell proliferation in BI-1 (TMBIM6) knockout HT1080 cells was investigated to determine if the antiproliferative effect by BIA at this dose was an off-target effect. The cell proliferation rate and AKT phosphorylation of BI-1 (TMBIM6) knockout HT1080 cells were the same with or without BIA except for high concentrations of “20 and 30 μM” (see FIG. 57).
Cell proliferation was investigated in BI-1 (TMBIM6) knockout HT1080 cells to determine if the antiproliferative effect by BIA at the dose was a non-targeted effect. The cell proliferation rate and AKT phosphorylation of BI-1 (TMBIM6) knockout HT1080 cells were the same in the treated and untreated groups of BIA except for high concentrations of “20 and 30 μM” (see FIGS. 63A and 63B).

In test [2] the test system is HT1080, MCF7, MDA-MB-231 and SKBR3 cell lines. The test can be described thus: Cell proliferation and viability of cell line panel with BIA. As to conditions: 5 μM BIA. Type of test: cell-based.
In test [3] the test system is HT1080, MCF7, MDA-MB-231 and SKBR3 cells. The test can be described thus: Cell migration (Transwell, wound healing). Type of test: cell-based. Here is the method:
Image (A) and quantification graph (B) (n=3 independent experiment).
FIG. […] The graph on the right quantifies migrated cells from BIA-treated cells normalized to control cells (n=3 independent experiments. Data were expressed in mean±SD. **p<0.01, ***p<0.001, two-tailed unpaired t-test simulation. The scale bar represents 15 μm.
It was used and checked. Cells were treated with trypsin, and serum and 2×10^4 cells were added to the upper chamber in DMEM, cells transported to the lower chamber via transwell for 12 hours were fixed and stained with crystal violet to perform migration analysis.

Test [4] has as its system tumors derived from HT1080 cells. Kind of test: Xenograft in nude mice. It is filed as in vivo. The conditions noted are these: 1 mg/kg BIA, 5 days a week, 25 days. How it is done: Mice purchased 20-25 g of BALBc/Nude and conducted experiments after 1 week of preliminary breeding to adapt to the laboratory environment. This experiment was approved by the Animal Experiment Ethics Committee of Chonbuk National University (CBNU 201 5-064, CBNU 2016-56) and was carried out according to standard work instructions, and the conditions in the breeding room were kept constant temperature and relative humidity, a 12-hour contrast cycle, and water and feed were freely consumed. Experimental animals are transplanted subcutaneously with 5×10^6 cells per mouse using HT1080 cell line and MDA-MB-231 cell line, and after 7-10 days, mice forming tumor sizes of 100 mm^3 are randomly divided into control and experimental groups. […] The tumor size was measured with a caliper and calculated using the following formula: […]
In culture, exponentially growing BI-1 (TMBIM6) knockout and WT HT1080 cells were treated with trypsin and quantified through trypan blue staining differentiation, and 3-5×10^6 cells were resuspended in 0.1 ml PBS. […]
After 25-28 days, the mice were euthanized, solid tumors were incised, and tumor volumes were recorded. Tumor size was measured with a caliper. The tumor volume (mm^3) was calculated by the formula [(shortest diameter)2×longest diameter]/2. […]

In the next test the test system is PANC-1 cells. The test can be described thus: Cell viability (crystal violet), BIA versus mTOR inhibitors. As to conditions: 10 μM. It is filed as cell-based.

As usually defined, the IC50 is the concentration at which inhibition is half-maximal. Low values mean greater potency in that assay, high ones weaker potency in that assay.

As for `Nc1ccccc1C(=O)/C=C/c1cccc([N+](=O)[O-])c1` [BIA, 2E-1-2-Aminophenyl-3-3-nitrophenyl-2-propen-1-one], the IC50 in the test with HT1080 is 1.7 ± 0.1 µM; with MCF7 it was 2.6 ± 0.4 µM; in the test on MDA-MB-231, 2.6 ± 0.5 µM; in the test with SKBR3, 2.4 ± 0.4 µM. Further, the dose-dependent cell survival entry in [1] (BI-1 (TMBIM6) knockout cells) is reported as “did not show a decrease”. In [1] (BI-1 knockout HT1080, except for high concentrations of 20 and 30 μM), the “cell proliferation rate and AKT phosphorylation with or without BIA” value is “the same”. Moreover, the “proliferation and cell viability of all cell lines” value in test [2] was “inhibited; also recorded: suppressed”. For the same molecule, the cell migration result in [3] (HT1080, MCF7, MDA-MB-231 and SKBR3 cells, 2.0 μM BIA) is “reduced”; in test [3] (HT1080 cells, FIGS. 64A and 64B (migration, wound healing 2 μM)), “reduced”. Also, the “migration of cancer cells” value in [3] (HT1080 fibrosarcoma cells, 10 μM, Transwell 12 hours) is on record as “strongly inhibited”. For the same molecule, in [4], the tumor growth result was “significantly impaired”. Moreover, the live cells entry with PANC-1 cells was “almost removed live cells”.
